Assay results from US20070249555A1, “Use of Atp Analogues for Treatment of Cardiovascular Diseases” (INSTITUT NATIONAL DE LA SANTE ET DE LA RECHERCHE MEDICALE …, priority 2004, published 2007).

How the values were obtained:
HepG2 cells [1] = experiment: TG-HDL2 internalization by HepG2 cells; type: cell-based, human; conditions: 10 min at 37° C.
Method: Cells were incubated for 10 minutes at 37° C. with 75 μg/ml^125I-TG-HDL2 without (control) or with apolipoprotein A-I 10 μg/ml (a), ADP 100 nM (b), AR-C69931MX 100 nM (c), ADP 100 nM+AR-C69931MX 100 nM (d), ADP 100 nM+[…] 100 μM (e), ADP 100 nM+MRS2179 10 μM (f). […] Internalization assays were performed as described in Guendouzi et al., (Biochemistry, 1998, 37: 14974-80) on HepG2 cells, obtained from the American Type Culture Collection ([…]). Cells were incubated for 10 minutes at 37° C. with 75 μg/ml of either ^125I-TG-HDL2, ^125I-HDL3 or ^125I-LDL. After washing and dissociation at 4° C. in phosphate buffered saline (PBS), cell radioactivity was determined using a Wallac 1261 multigamma apparatus. Prior experiments, cells were plated in polylysine-coated 24-multiwell plates (Falcon) at 4×10^4 cells per well. Cells were grown in Dulbecco's modified Eagles medium supplemented with 10% fetal calf serum, 100 units/ml penicillin, and 100 μg/ml streptomycin at 37° C. in a 5% CO2 and 95% air incubator. Medium was changed every 2 or 3 days, and the cells were subcultured every 7-8 days. Results are expressed as a percentage of internalization with respect to the control value (set at 0). Control corresponded to a basal value of internalization, amounting to 400 ng, 300 ng, 200 ng of TG-HDL2, HDL3 and LDL per mg of cells protein respectively for 10 minutes. Data as a mean ±SEM of at least 7, 5, 6 independent experiments, for TG-HDL2, HDL3 and LDL respectively.

HepG2 cells [2] = experiment: LDL internalization by HepG2 cells, without or with P2Y13 receptor silencing; type: cell-based, human; conditions: HepG2, 75 μg/ml 125I-LDL, 100 nM, both without or with P2Y13 receptors silencing
Method: Experiment was performed as in FIG. 2C except that HepG2 cells were incubated for 10 minutes at 37° C. with 75 μg/ml ^125I-LDL (n>6).
(§1) Internalization assays were performed as described in Guendouzi et al., (Biochemistry, 1998, 37: 14974-80) on HepG2 cells, obtained from the American Type Culture Collection ([…]). Cells were incubated for 10 minutes at 37° C. with 75 μg/ml of either ^125I-TG-HDL2, ^125I-HDL3 or ^125I-LDL. After washing and dissociation at 4° C. in phosphate buffered saline (PBS), cell radioactivity was determined using a Wallac 1261 multigamma apparatus.
The silencing of the different P2Y receptors were carried-out using the siRNA technique. The siRNA sequenced targeting human P2Y13 receptor (Gene Bank GB/EMBL/DDBJ accession number AF295368) was from position 406 or 359 relative to the start codon. The siRNA duplex (21-nt-RNAs) in deprotected and desalted form, the siRNA targeting human P2Y1 receptor (a mix of 4 siRNAs, M-005689), and the non-specific control siRNA (D-001206-01) were purchased from Dharmacon Inc. Subconfluent HepG2 cells were transiently transfected with siRNAs (final concentration, 100 nM) using Oligofectamine™ according to the manufacturer's protocole (Invitrogen). Cells were usually assayed 48 hours after transfection. […]
(§2) Results are expressed as a percentage of internalization with respect to the control value (set at 0). […]

human P2Y13 receptor = molecular target: T1, human P2Y13 receptor (Homo sapiens, UniProt Q9BPV8); experiment: HDL3 internalization by HepG2 cells after P2Y13 receptor silencing by siRNA; type: cell-based; conditions: 75 μg/ml 125I-HDL3, ADP 100 nM, AR-C69931MX 100 nM
T1 construct: host or cells: HepG2
T1 sequence (Q9BPV8 1-354): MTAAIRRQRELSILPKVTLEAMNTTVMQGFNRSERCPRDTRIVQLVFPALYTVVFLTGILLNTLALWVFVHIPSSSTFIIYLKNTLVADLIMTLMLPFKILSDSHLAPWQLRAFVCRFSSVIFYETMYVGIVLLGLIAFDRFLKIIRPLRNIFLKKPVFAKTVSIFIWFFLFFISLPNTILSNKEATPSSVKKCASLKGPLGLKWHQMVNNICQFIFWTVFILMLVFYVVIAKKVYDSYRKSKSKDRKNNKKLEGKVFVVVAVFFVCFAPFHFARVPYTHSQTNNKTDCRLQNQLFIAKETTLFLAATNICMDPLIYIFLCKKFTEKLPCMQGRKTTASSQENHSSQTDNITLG
Method: Cells were transiently transfected with siRNA designated to human P2Y13 receptor (column c, d, e). 48 hours later, cells were incubated for 10 minutes at 37° C. with 75 μg/ml ^125I-HDL3 without (control) or with ADP 100 nM (a and c), AR-C69931MX 100 nM (b and d), PBS (e) (n>5); (*) p<0.05 (unpaired t-test).
as §1
The silencing of the different P2Y receptors were carried-out using the siRNA technique. The siRNA sequenced targeting human P2Y13 receptor (Gene Bank GB/EMBL/DDBJ accession number AF295368) was from position 406 or 359 relative to the start codon. […]
as §2

human P2Y1 receptor = molecular target: T2, human P2Y1 receptor (Homo sapiens, UniProt P47900); experiment: TG-HDL2 internalization by HepG2 cells after P2Y1 receptor silencing by siRNA; type: cell-based; conditions: HepG2, pool of 4 P2Y1 siRNAs 100 nM, 48 h; apoA-I 10 μg/ml, ADP 100 nM, AR-C69931MX 100 nM
T2 construct: host or cells: HepG2
Method: HepG2 cells were transiently transfected with siRNA designated to human P2Y1 receptor (columns d, e, f, g) or with non specific siRNA as control (a, b, c). 48 hours later, cells were incubated for 10 minutes at 37° C. with 75 μg/ml ^125I-TG HDL2 without (control) or with apolipoprotein A-I 10 μg/ml (a and d), ADP 100 nM (b and e), AR-C69931MX 100 nM (c and f), PBS (g). Data are expressed as a percentage of internalized radioactivity with respect to the control value (set as 0) (n>5); (*) p<0.05 (unpaired t-test).
as §1
The silencing of the different P2Y receptors were carried-out using the siRNA technique. The siRNA sequenced targeting human P2Y13 receptor (Gene Bank GB/EMBL/DDBJ accession number AF295368) was from position 406 or 359 relative to the start codon. The siRNA duplex (21-nt-RNAs) in deprotected and desalted form, the siRNA targeting human P2Y1 receptor (a mix of 4 siRNAs, M-005689), and the non-specific control siRNA (D-001206-01) were purchased from Dharmacon Inc. Subconfluent HepG2 cells were transiently transfected with siRNAs (final concentration, 100 nM) using Oligofectamine™ according to the manufacturer's protocole (Invitrogen). Cells were usually assayed 48 hours after transfection. Specific silencing effect was confirmed by at least three independent experiments.
Results are expressed as a percentage of internalization with respect to the control value (set at 0). Control corresponded to a basal value of internalization, amounting to 400 ng, 300 ng, 200 ng of TG-HDL2, HDL3 and LDL per mg of cells protein respectively for 10 minutes. […]

T2 sequence (P47900 whole entry): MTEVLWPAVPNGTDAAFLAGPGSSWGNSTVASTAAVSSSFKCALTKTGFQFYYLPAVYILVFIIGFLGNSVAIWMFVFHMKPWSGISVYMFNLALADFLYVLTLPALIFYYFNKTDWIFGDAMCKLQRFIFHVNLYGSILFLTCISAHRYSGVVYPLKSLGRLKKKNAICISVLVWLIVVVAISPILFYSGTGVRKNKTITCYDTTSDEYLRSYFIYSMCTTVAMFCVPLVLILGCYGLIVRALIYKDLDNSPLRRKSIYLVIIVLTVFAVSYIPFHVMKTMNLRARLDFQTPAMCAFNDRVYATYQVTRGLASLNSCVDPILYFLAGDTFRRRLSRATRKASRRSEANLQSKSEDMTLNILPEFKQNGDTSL

| Compound | internalization of 125I-TG-HDL2 by HepG2 cells, increase above control cells (HepG2 cells [1]; 75 μg/ml 125I-TG-HDL2, apoA-I 10 μg/ml, ADP 100 nM, AR-C69931MX 100 nM alone) [%] | stimulation of internalization of 125I-labelled LDL (HepG2 cells [2]) | effect of P2Y13 receptor silencing on HDL3 internalization after stimulation (human P2Y13 receptor) | effect of P2Y1 receptors silencing on the stimulation of TG-HDL2 endocytosis (human P2Y1 receptor) | ADP-dependent TG-HDL2 internalization, increase above control cells (HepG2 cells [1]; ADP 100 nM + AR-C69931MX 100 nM) |
| --- | --- | --- | --- | --- | --- |
| Nc1ncnc2c1ncn2[C@@H]1O[C@H](COP(=O)(O)OP(=O)(O)O)[C@@H](O)[C@H]1O [ADP, adenosine diphosphate, reference compound] | 20 | lack of stimulation | strong inhibition | no effect |  |
| CSCCNc1nc(SCCC(F)(F)F)nc2c1ncn2[C@@H]1O[C@H](COP(=O)(O)OP(=O)(O)C(Cl)(Cl)P(=O)(O)O)[C@@H](O)[C@H]1O [AR-C69931MX, N-[2-(methylthio)ethyl]-2-[(3,3,3-trifluoropropyl)thio]-5′-adenylic acid, monoanhydride with dichloromethylenebisphosphonic acid] |  | lack of stimulation | strong inhibition | no effect | over 30% |
